Numbers after ± are expanded uncertainties.
Conditions: Liquid, Ebulliometric method (Recirculating still)

Row | Compound | vapor or sublimation pressure (428.65 K) [kPa] | vapor or sublimation pressure (449.39 K) [kPa]
1 | CC1=CCC2CC1C2(C)C (configuration not stated) [2-pinene] | 100.7 ± 1.1 | –
2 | Cc1ccc(C(C)C)cc1 [1-(1-methylethyl)-4-methylbenzene] | – | 100.7 ± 0.6

From the NIST ThermoML archive (doi:10.1016/j.jct.2012.10.017)
